The source of these data is ChEMBL document CHEMBL1201862, “PubChem BioAssay data set” (2004).

What is called IC50 is the point on the concentration scale where inhibition reaches its midpoint. The AC50 is the concentration giving half of the maximal activity seen. The EC50 is the concentration that produces a half-maximal response.

Structures are written as SMILES. Calls of active or inactive are those of the source. Bounds are passed on as bounds.

The target in test [1] is T1, Eukaryotic translation initiation factor 4H (Homo sapiens, UniProt Q15056). The experiment in a line: eIF4H binding inhibition – biochemical, uHTS, fluorescence polarization, translation initiation inhibitor project, primary screen (AID 2012).
Test [2] addresses T1, Eukaryotic translation initiation factor 4H. The experiment in a line: inhibitors of translation initiation factor eIF4H – SAR follow-up (AID 435011). Format: functional.
Test [3] addresses DNA dC->dU-editing enzyme APOBEC-3G (Homo sapiens, UniProt Q9HC16). Format: functional.
The target of test [4] is T2, Polyadenylate-binding protein 1 (Homo sapiens, UniProt P11940). Briefly: blockers of PABP interaction with poly(A) – biochemical, fluorescence polarization, […] (AID 2014). On the technique in general: Polarisation of emitted light reports the rotation of a fluorescent probe.
The target in test [5] is DNA dC->dU-editing enzyme APOBEC-3A (Homo sapiens, UniProt P31941). Briefly: Dose Response confirmation of small molecule APOBEC3A DNA Deaminase Inhibitors via a fluorescence-based single-stranded DNA deaminase assay. [Related pubchem assays (depositor defined):AID493011, AID493024]. It is filed as functional.
The target in test [6] is T2, Polyadenylate-binding protein 1. The experiment in a line: PABP inhibition in translation initiation, SAR follow-up (AID 435018). It is filed as functional.
For test [7], the target named is Intestinal-type alkaline phosphatase (Homo sapiens, UniProt P09923). The experiment in a line: inhibition of human intestinal alkaline phosphatase – biochemical, dose response (AID 488876). It is filed as functional.
Test [8] is described as follows: loss of viability in HepG2 cells – cell-based, CellTiter-Glo, cherry-picked, cytotoxicity control for Shn3 inhibitor project, dose response (AID 624134). Format: functional.
Test [9] has as its target T3, Alkaline phosphatase, tissue-nonspecific isozyme (Homo sapiens, UniProt P05186).
T3 sequence (P05186 whole entry): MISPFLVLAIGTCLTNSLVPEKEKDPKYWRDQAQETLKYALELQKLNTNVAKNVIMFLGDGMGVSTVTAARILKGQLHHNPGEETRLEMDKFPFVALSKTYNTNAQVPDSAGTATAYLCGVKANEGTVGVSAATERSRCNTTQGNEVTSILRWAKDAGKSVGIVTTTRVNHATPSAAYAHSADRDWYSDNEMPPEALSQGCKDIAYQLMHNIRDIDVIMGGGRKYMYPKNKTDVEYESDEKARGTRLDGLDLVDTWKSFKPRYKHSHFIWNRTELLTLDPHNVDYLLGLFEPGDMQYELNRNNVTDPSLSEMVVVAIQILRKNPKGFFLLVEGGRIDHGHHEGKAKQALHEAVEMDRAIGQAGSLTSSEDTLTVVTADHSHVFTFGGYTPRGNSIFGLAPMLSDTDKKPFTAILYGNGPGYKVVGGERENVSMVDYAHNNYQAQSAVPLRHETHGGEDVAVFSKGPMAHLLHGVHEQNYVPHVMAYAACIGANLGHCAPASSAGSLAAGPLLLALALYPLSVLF
The experiment in a line: TNAP enzyme inhibition by screening hits, dose response, selectivity assay for mouse IAP inhibitor project, biochemical, human TNAP, uHTS hits (AID 488906). It is filed as functional.

The nature of test [10]: reduction of Shn3 3'UTR-driven luciferase in osteoblasts – cell-based, Clone20 osteoblasts, firefly luciferase, cherry-picked, dose response (AID 624132).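 Also: firefly luciferase luminescence from reporter carrying the Shn3 3'UTR in osteoblasts.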 Format: functional.
Test [11] can be described thus: non-specific 3'UTR reporter inhibition in Clone20-Shn3RL – cell-based, Renilla luciferase, cherry-picked, counter-screen for Shn3 inhibitor project, dose response (AID 624133). Format: functional.
Test [12] has as its target Intestinal-type alkaline phosphatase (Mus musculus, UniProt P24822). Briefly: PubChem AID 488785. It is filed as functional.
For test [13], the target named is T3, Alkaline phosphatase, tissue-nonspecific isozyme.
For test [14], the target named is T4, Long-chain-fatty-acid--AMP ligase FadD28 (Mycobacterium tuberculosis, UniProt P9WQ59).
T4 sequence (P9WQ59 whole entry): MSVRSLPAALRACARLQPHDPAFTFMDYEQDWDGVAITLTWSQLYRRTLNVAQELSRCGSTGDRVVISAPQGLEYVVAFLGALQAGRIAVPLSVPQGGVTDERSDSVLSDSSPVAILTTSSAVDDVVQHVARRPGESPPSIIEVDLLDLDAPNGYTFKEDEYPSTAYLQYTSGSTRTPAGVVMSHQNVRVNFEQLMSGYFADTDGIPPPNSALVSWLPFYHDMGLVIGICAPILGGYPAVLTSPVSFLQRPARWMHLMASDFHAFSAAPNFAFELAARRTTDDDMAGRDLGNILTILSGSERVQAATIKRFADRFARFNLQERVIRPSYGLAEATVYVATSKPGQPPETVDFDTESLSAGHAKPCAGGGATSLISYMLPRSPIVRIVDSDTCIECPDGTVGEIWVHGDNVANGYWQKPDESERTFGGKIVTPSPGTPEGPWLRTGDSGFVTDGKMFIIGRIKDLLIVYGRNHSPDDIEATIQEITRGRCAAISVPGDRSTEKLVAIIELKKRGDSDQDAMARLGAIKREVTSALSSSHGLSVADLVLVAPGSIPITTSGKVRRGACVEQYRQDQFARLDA
The experiment in a line: Fluorescence polarization aasay to screen for inhibitors that compete for the binding of FadD28 to a bisubstrate Measured in Biochemical System Using Plate Reader - 2147-01_Inhibitor_Dose_CherryPick_Activity. It is filed as functional, Mycobacterium tuberculosis H37Rv.

Test [15] deals with T5, Carboxy-terminal domain RNA polymerase II polypeptide A small phosphatase 1 (Homo sapiens, UniProt Q9GZU7).
T5 sequence (Q9GZU7 whole entry): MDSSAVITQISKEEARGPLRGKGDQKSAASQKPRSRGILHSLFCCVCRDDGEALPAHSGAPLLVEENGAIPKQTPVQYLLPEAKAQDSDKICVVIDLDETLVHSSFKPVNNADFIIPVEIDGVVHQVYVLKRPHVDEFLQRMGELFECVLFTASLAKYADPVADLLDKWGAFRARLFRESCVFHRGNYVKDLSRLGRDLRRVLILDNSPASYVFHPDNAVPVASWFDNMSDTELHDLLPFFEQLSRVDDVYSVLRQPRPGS
The experiment in a line: CTDSP1 inhibitors, concentration-response, biochemical, absorbance readout, ultra-high-throughput screen actives (AID 540297). Format: functional.

Test [16] has as its target Bifunctional protein GlmU (Mycobacterium tuberculosis, UniProt P9WMN3). Briefly: Inhibitors of Mycobacterial Glucosamine-1-phosphate acetyl transferase (GlmU). Secondary screen. On the set-up: species or system Mycobacterium tuberculosis H37Rv.
Test [17] deals with DNA (cytosine-5)-methyltransferase 1 (Homo sapiens, UniProt P26358). Briefly: inhibition of DNA methylation by DNMT1 – biochemical, fluorescent molecular beacon, confirmation (AID 602386). It is filed as functional.
The target in a further test is Leucine aminopeptidase (Plasmodium falciparum 3D7, UniProt Q8IL11). Briefly: P. falciparum M17LAP inhibitors, primary screen, biochemical, fluorogenic H-Leu-NHMec substrate, 1536-well (AID 1619). Format: functional.
For the next test, the target named is T6, ORF 73 (Human herpesvirus 8, UniProt O40947).
T6 sequence (O40947 whole entry): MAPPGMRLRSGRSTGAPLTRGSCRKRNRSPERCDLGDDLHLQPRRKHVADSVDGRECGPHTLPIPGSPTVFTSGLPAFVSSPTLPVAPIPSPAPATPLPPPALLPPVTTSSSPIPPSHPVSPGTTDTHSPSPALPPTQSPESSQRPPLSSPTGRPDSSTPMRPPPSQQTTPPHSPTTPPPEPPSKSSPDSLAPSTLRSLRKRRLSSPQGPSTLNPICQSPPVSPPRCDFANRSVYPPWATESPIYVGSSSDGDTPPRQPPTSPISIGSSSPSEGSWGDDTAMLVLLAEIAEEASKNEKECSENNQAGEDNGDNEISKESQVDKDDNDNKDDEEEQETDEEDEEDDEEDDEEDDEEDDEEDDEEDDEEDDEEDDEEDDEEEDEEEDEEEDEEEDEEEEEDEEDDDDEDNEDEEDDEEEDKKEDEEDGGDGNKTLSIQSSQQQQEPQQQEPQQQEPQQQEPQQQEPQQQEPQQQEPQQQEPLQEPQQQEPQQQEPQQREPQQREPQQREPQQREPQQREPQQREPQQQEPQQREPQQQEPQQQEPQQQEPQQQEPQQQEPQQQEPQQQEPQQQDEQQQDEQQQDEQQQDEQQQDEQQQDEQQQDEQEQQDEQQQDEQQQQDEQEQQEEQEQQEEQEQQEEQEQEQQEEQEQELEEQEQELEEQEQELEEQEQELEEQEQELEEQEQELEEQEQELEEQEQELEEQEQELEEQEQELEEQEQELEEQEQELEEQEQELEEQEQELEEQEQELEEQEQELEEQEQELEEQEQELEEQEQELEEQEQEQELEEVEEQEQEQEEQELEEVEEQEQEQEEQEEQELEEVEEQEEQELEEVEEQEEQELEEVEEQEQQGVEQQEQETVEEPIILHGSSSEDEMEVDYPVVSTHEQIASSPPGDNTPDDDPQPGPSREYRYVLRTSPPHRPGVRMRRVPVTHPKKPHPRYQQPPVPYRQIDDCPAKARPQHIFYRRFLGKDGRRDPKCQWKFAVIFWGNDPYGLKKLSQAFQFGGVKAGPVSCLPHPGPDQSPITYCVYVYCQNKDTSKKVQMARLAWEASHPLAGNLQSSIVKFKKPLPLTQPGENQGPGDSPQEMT
The experiment in a line: KSHV LANA DNA-binding disruption – biochemical, fluorescence polarization, cherry-picked samples, dose response (AID 504725).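 Also: fluorescence polarization of a labeled DNA duplex reporting LANA DNA binding; potency is for inhibitors that block LANA binding to the DNA.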 On the set-up: species or system Human gammaherpesvirus 8.

Test [18] concerns the target T7, Histone-lysine N-methyltransferase NSD2 (Homo sapiens, UniProt O96028).
T7 sequence (O96028 whole entry): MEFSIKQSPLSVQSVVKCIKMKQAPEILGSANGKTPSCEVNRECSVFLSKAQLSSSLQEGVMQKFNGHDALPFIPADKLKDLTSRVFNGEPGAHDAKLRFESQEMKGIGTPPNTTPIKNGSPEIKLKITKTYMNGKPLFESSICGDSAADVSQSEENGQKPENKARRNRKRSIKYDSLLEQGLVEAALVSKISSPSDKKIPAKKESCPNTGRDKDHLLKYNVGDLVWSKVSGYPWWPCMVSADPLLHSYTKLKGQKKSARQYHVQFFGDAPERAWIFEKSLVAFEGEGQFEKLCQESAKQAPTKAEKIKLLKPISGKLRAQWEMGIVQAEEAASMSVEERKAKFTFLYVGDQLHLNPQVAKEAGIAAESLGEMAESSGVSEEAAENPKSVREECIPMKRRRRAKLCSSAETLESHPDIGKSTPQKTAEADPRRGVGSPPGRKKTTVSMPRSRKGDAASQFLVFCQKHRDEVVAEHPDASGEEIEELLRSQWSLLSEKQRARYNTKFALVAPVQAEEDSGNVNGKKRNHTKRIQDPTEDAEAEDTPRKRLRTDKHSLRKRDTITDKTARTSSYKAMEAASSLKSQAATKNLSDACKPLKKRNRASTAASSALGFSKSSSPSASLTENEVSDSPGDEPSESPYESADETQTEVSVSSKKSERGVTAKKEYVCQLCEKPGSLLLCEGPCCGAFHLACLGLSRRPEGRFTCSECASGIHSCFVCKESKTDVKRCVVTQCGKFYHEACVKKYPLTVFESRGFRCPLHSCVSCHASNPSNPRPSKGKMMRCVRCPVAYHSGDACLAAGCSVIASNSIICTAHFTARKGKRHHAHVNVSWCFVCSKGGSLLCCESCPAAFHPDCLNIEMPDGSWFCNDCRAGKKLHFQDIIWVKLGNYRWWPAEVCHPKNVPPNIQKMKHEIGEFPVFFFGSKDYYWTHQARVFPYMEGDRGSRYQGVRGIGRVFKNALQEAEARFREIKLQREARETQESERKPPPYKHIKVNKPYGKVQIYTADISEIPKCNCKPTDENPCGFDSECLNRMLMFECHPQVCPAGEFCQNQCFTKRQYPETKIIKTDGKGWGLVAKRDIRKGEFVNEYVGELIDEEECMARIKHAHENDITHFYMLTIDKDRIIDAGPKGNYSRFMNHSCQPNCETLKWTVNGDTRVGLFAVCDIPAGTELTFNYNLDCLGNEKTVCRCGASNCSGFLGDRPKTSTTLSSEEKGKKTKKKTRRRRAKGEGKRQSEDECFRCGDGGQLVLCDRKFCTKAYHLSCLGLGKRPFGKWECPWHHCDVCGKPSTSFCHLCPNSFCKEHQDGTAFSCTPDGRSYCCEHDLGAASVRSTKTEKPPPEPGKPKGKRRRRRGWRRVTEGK
Format: biochemical.

Another test deals with X-box-binding protein 1 (Homo sapiens, UniProt P17861). Format: functional, Cricetulus griseus.
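For Absolute IC50 (XBP1) in this document: confirmatory dose-response counter-screen serving a CHOP assay.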

T2 sequence (P11940 whole entry): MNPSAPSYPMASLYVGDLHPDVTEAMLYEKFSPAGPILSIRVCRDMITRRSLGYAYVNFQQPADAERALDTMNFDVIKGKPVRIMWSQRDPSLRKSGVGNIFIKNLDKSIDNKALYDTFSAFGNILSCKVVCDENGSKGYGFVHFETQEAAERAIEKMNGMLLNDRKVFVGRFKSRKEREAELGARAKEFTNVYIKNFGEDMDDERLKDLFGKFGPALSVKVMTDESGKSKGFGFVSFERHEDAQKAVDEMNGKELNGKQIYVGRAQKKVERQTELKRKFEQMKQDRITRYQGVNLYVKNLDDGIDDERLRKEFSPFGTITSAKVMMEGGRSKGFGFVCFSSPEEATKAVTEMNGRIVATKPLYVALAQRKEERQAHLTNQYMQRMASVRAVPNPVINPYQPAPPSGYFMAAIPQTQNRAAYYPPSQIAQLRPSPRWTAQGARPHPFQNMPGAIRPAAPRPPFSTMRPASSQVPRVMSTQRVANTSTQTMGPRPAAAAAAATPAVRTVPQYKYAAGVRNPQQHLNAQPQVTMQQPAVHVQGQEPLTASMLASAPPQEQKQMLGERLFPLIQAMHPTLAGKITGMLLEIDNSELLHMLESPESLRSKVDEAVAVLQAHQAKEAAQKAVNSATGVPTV
Chain of DNA dC->dU-editing enzyme APOBEC-3A (P31941 whole entry): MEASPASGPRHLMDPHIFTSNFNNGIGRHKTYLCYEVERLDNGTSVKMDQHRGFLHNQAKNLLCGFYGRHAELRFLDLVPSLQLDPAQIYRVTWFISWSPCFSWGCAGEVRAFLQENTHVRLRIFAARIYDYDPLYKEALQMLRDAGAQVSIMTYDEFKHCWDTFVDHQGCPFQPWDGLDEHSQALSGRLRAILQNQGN
Chain of X-box-binding protein 1 (P17861 whole entry): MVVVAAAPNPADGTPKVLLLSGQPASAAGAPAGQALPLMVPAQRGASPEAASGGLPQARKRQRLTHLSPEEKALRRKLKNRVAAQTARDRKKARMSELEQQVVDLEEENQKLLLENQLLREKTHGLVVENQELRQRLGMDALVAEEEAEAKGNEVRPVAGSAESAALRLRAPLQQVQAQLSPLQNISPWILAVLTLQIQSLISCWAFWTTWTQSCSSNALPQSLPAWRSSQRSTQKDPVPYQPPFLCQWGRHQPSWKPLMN
Chain of Leucine aminopeptidase (Q8IL11 whole entry): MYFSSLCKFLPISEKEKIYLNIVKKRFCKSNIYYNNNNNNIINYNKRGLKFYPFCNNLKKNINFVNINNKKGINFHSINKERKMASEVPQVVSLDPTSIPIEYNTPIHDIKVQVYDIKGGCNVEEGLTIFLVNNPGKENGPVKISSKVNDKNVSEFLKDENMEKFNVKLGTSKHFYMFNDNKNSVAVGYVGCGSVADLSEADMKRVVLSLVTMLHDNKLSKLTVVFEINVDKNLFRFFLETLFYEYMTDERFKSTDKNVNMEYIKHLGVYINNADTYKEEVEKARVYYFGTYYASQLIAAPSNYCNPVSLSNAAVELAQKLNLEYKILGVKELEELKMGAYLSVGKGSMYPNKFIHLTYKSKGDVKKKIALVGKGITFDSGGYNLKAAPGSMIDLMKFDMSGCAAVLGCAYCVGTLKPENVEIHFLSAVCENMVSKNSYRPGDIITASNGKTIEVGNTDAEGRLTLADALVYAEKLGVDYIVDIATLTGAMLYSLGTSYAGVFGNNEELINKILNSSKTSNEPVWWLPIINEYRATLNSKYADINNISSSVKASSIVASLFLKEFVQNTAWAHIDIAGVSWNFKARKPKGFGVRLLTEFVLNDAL
Chain of DNA (cytosine-5)-methyltransferase 1 (P26358 whole entry): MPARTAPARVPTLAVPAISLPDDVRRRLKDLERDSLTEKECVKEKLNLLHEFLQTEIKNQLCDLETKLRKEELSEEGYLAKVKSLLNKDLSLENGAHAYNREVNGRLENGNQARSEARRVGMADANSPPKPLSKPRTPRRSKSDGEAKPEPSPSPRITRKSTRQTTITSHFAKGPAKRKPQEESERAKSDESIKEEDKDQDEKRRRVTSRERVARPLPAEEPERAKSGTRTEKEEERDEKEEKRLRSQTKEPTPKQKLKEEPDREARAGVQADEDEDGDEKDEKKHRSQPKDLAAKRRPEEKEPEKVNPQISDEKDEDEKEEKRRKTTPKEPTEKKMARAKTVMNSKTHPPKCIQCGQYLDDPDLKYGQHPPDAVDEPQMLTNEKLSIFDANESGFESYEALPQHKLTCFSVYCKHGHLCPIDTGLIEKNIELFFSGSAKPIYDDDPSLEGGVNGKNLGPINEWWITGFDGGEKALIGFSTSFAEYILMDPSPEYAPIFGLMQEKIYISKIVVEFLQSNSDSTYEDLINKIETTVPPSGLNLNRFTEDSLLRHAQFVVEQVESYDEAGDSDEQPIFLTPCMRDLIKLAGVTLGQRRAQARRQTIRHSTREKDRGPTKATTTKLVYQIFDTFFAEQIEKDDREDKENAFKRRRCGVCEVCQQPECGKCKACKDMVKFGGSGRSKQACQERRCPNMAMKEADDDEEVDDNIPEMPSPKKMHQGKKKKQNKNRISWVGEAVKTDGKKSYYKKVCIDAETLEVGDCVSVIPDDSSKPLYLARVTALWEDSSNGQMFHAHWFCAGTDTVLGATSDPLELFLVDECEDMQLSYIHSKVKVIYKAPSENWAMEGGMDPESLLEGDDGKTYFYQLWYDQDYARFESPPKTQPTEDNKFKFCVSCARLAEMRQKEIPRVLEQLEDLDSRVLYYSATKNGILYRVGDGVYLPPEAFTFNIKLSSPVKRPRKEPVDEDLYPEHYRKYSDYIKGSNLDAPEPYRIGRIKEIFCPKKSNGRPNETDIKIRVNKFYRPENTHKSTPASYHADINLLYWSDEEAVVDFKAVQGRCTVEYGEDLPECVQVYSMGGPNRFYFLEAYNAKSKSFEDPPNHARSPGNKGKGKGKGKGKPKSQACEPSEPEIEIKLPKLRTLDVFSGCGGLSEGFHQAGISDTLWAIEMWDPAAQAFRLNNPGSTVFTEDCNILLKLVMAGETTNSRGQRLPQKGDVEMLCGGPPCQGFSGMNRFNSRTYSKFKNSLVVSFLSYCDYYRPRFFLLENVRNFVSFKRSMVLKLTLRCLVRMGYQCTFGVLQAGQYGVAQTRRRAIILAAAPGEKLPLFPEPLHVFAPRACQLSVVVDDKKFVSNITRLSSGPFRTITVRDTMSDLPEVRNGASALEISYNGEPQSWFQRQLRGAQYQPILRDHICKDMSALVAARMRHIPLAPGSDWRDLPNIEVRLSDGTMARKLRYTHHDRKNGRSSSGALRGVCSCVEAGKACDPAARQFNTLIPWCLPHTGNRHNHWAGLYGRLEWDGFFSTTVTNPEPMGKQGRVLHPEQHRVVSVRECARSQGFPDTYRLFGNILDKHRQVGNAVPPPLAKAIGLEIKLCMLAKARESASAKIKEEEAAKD
Chain of Bifunctional protein GlmU (P9WMN3 whole entry): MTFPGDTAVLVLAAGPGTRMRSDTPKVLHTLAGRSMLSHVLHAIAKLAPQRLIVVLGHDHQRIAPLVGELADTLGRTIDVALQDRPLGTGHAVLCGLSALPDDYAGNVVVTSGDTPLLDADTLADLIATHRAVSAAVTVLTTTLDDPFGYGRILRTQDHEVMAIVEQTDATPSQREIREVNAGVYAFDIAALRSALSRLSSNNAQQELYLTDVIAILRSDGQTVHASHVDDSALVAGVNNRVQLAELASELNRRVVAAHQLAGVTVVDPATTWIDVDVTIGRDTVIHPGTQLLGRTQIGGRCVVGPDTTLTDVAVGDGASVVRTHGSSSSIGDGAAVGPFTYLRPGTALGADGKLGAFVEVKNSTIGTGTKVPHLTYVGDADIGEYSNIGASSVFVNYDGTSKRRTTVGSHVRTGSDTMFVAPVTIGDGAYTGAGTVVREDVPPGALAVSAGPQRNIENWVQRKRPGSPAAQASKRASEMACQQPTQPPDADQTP
Chain of Intestinal-type alkaline phosphatase (Homo sapiens, UniProt P09923) (P09923 whole entry): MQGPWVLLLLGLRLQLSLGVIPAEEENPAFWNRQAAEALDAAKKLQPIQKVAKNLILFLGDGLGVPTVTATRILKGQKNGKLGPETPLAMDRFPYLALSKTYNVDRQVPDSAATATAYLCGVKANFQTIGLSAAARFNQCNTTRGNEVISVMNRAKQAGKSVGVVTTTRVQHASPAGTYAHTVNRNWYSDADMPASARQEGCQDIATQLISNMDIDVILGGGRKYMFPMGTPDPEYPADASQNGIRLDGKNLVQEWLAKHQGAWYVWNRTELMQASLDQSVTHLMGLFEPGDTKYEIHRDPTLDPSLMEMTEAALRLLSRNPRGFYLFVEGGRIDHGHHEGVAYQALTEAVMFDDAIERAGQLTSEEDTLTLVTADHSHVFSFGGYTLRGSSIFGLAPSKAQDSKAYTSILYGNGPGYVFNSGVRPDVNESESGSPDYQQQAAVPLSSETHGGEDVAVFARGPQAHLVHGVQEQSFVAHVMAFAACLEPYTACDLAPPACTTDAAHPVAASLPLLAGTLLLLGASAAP
Chain of DNA dC->dU-editing enzyme APOBEC-3G (Q9HC16 whole entry): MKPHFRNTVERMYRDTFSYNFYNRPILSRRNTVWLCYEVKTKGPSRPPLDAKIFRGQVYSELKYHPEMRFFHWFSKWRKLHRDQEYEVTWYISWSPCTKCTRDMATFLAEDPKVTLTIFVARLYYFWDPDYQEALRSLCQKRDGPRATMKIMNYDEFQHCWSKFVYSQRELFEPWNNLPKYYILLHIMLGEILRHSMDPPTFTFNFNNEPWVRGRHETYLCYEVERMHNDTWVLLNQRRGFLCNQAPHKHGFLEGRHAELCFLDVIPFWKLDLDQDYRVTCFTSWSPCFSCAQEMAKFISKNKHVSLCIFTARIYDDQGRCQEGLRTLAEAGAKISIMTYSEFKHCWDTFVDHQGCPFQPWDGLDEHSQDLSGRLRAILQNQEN

Take `CCN1CCN(S(=O)(=O)c2ccc(Cl)c(C(=O)N(CC)CC(=O)Nc3ccc(OC)cc3)c2)CC1`: the 50% inhibitory concentration (IC50) in test [1] is 85.9 µM (active); in [2], 21 µM (active); in test [3] it was 3.43 µM (active); in test [4] it was 3.26 µM (active); in test [5] it was 3.4 µM (active); in test [6], 4.68 µM (active).
On to `Cc1ccc(N=C(N)Nc2nc(C)cc(N3CCCCC3)n2)c(C)c1`, for which the figures for the IC50 in test [7], in test [9] and in [12] were 70.1 µM (active), 32.1 µM (active) and 3.34 µM (active), respectively. Moreover, the AC50 in [8] is 5.74 µM (active); in test [10] it was 0.891 µM (active); in [11] it was 0.639 µM (active). For the same molecule, the concentration giving a half-maximal response (EC50) in [13] is listed as 71.7 µM (not active).
As for `Cc1cc(/C=C2\C(=O)NC(=O)N(Cc3ccccc3)C2=O)c(C)n1-c1ccc(Cl)c(C(=O)O)c1`, the AC50 is 35.6 µM (active) in test [14], 76.2 µM (active) on ORF 73 and 5.47 µM (active) in test [18]. The concentration for half-maximal inhibition (IC50) was 1.02 µM (active) in test [15], 71.9 µM (active) in test [16], 3.35 µM (active) in [17] and 72.7 µM (active) on Leucine aminopeptidase.
On to `CC(C)CN=C(S)NNC(=O)c1ccc2c(c1)OCO2`, for which, in test [13], the EC50 is 40.7 µM (active).
`CC(=O)Nc1cccc(NC(=O)CSc2ccc(-c3ccco3)nn2)c1`: the IC50 in test [1] is 10.3 µM (active); in test [2], 25 µM (active); in test [4], 46.3 µM (active); in [6], > 100 µM (inactive).
For `Cc1ccc(/C=N/n2c(S)nnc2C2CCCCC2)s1`, the “Absolute IC50 (XBP1)” value on X-box-binding protein 1 came out at 10 µM.
